The text below walks through data of ChEMBL document CHEMBL3091296, “Design, synthesis and biological evaluation of 3-benzyloxy-linked pyrimidinylphenylamine derivatives as potent HIV-1 NNRTIs” (Bioorg Med Chem, 2013).

In data set [1] the test system is Human immunodeficiency virus 1. Description: Antiviral activity against wild-type HIV1 3B infected in MT4 cells assessed as reduction in virus-induced cytopathic effect after 5 days by MTT assay. The class given is functional, organism-based. As to conditions: Human immunodeficiency virus 1, 3B, MT4, 120 h. For orientation: Cytopathic effects are the visible damage that an infection or toxin causes in cultured cells.

Data set [2] can be described thus: Selectivity index, ratio of CC50 for human MT4 cells to EC50 for wild-type HIV1 3B infected in MT4 cells. The class given is toxicity, cell-based. As to conditions: read-out: Ratio CC50/EC50.
Data set [3] relates to Human immunodeficiency virus 2. Description: Antiviral activity against HIV2 ROD infected in MT4 cells assessed as reduction in virus-induced cytopathic effect after 5 days by MTT assay. The class given is functional, organism-based. As to conditions: Human immunodeficiency virus 2, ISOLATE ROD, MT4, 120 h.
Data set [4] relates to Human immunodeficiency virus 1. Description: Antiviral activity against HIV1 harboring reverse transcriptase K103N/Y181C mutant infected in MT4 cells assessed as reduction in virus-induced cytopathic effect after 5 days by MTT assay. The class given is functional, organism-based. As to conditions: Human immunodeficiency virus 1, MT4, 120 h.
Data set [5] can be described thus: Cytotoxicity against mock-infected human MT4 cells after 5 days by MTT assay. The class given is cell-based. (Tetrazolium dyes change colour on reduction, which living cells bring about.)
The target of data set [6] is Human immunodeficiency virus type 1 reverse transcriptase (Human immunodeficiency virus 1, UniProt Q72547). Description: Inhibition of HIV-1 reverse transcriptase assessed as inhibition of biotin dUTP incorporation by primer extension assay.

Turning to `COc1ccnc(Nc2ccc(Cl)c(OCc3ccccc3Cl)c2)n1`, the EC50 (as a rule, the concentration giving half of the maximal effect) was 0.23 µM in data set [1], more than 33 µM in data set [3] and more than 33 µM in data set [4]. Also, the selectivity ratio in data set [2] was 143. In addition, it took 33 µM to reach half-maximal cytotoxicity in data set [5] (CC50 at 120 h).
On to `COc1ccnc(Nc2ccc(Cl)c(OCc3ccc(C(N)=O)cc3)c2)n1`, for which the concentration giving a half-maximal response (EC50) is 35 µM in data set [1], more than 325 µM in data set [3] and more than 325 µM in data set [4]. In data set [2], the selectivity ratio is more than 9. In addition, in data set [5], the CC50 (usually the concentration that lowers cell viability or growth by half) at 120 h was more than 325 µM.
Regarding `COc1ccnc(Nc2ccc(Cl)c(Oc3ccccc3)c2)n1`, the selectivity ratio in data set [2] was 15.
Turning to `COc1ccc(COc2cc(Nc3nccc(OC)n3)ccc2Cl)cc1`, the concentration giving a half-maximal response (EC50) was 7.8 µM in data set [1], more than 290 µM in data set [3] and more than 290 µM in data set [4]. Also, the selectivity ratio in data set [2] was not below 37. The compound further displayed a CC50 at 120 h in data set [5] not below 290 µM.
With `COc1ccnc(Nc2ccc(Cl)c(OCc3cccc(F)c3)c2)n1`, the EC50 was 0.07 µM in data set [1], more than 347 µM in data set [3] and more than 347 µM in data set [4]. Also, the selectivity ratio in data set [2] was more than 4870. Also, the IC50 (as a rule, the concentration that inhibits the measured activity by half) in data set [6] was found to be 1.5 µM. In data set [5], this compound yielded a 50% cytotoxic concentration (CC50) at 120 h of more than 347 µM.
Consider `COc1ccnc(Nc2ccc(Cl)c(OCc3ccccc3Br)c2)n1`, for which the EC50 in data set [1] was 0.33 µM; in data set [3] it was more than 52 µM; in data set [4], more than 52 µM. Also, in data set [2], the selectivity ratio was 158. The compound further returned a cytotoxic concentration (CC50) at 120 h in data set [5] of 52 µM.
`COc1ccnc(Nc2ccc(Cl)c(OCc3ccc(Br)cc3)c2)n1`: the concentration giving a half-maximal response (EC50) in data set [1] was 23 µM; in data set [3], more than 224 µM; in data set [4], more than 224 µM. The selectivity ratio in data set [2] worked out at 10. The CC50 at 120 h in data set [5] amounted to 224 µM.
As to `COc1ccnc(Nc2ccc(Cl)c(OCc3ccccc3)c2)n1`, the EC50 in data set [1] is 0.075 µM; in data set [3] it was more than 62 µM; in data set [4], more than 62 µM. Besides, in data set [2], the selectivity ratio was 833. The compound further yielded a CC50 at 120 h in data set [5] of 62 µM.
As for `COc1ccnc(Nc2ccc(Cl)c(OCc3ccc(Cl)cc3Cl)c2)n1`, the half-maximal effective concentration (EC50) in data set [1] and in data set [3] was more than 77 µM throughout. For the same compound, the selectivity ratio in data set [2] is less than 1. The compound also returned a CC50 at 120 h in data set [5] of 77 µM.
Regarding `Cc1ccnc2c1NC(=O)c1cccnc1N2C1CC1` [NEVIRAPINE], the concentration for a half-maximal effect (EC50) was 0.113 µM in data set [1] and more than 5 µM in data set [4]. In data set [5], this compound had a CC50 at 120 h of more than 15 µM.
As for `COc1ccnc(Nc2ccc(Cl)c(OCc3ccc(C#N)cc3)c2)n1`, the results for the EC50 in data set [1], in data set [3] and in data set [4] were 17 µM, more than 283 µM and more than 283 µM, respectively. Besides, in data set [2], the selectivity ratio worked out at 17. The same compound displayed a CC50 at 120 h in data set [5] of 283 µM.
With `COc1ccnc(Nc2ccc(Cl)c(OCc3ccccc3C#N)c2)n1`, the EC50 in data set [1] is 0.15 µM; in data set [3] it was more than 199 µM; in data set [4], more than 199 µM. For the same compound, the selectivity ratio in data set [2] turned out to be 1290. The same compound showed a CC50 at 120 h in data set [5] of 199 µM.
Take `COc1ccnc(Nc2ccc(Cl)c(OCc3cccc(Cl)c3)c2)n1`: the concentration for a half-maximal effect (EC50) in data set [1] is 0.23 µM; in data set [3] it was more than 332 µM; in data set [4] it was more than 332 µM. Moreover, the selectivity ratio in data set [2] was more than 1460. For the same compound, the half-maximal cytotoxic concentration (CC50) at 120 h in data set [5] was more than 332 µM.
Consider `COc1ccnc(Nc2ccc(Cl)c(OCc3ccccc3C)c2)n1`, for which the concentration for a half-maximal effect (EC50) was 0.082 µM in data set [1], more than 8.8 µM in data set [3] and more than 8.8 µM in data set [4]. The selectivity ratio in data set [2] was 106. The compound also gave a CC50 at 120 h in data set [5] of 8.8 µM.
On to `COc1ccnc(Nc2ccc(Cl)c(OCc3ccc(F)cc3)c2)n1`, for which the EC50 in data set [1] is 0.71 µM; in data set [3] it was more than 218 µM; in data set [4], more than 218 µM. Moreover, the selectivity ratio in data set [2] was 309. The compound further registered a cytotoxic concentration (CC50) at 120 h in data set [5] of 218 µM.
As to `COc1ccnc(Nc2ccc(Cl)c(OCc3ccc(Cl)c(Cl)c3)c2)n1`, the 50% effective concentration (EC50) in data set [1] and in data set [3] was more than 304 µM each time. Moreover, in data set [2], the selectivity ratio was more than 1. For the same compound, in data set [5], the CC50 at 120 h was more than 304 µM.
For the compound `COc1ccnc(Nc2ccc(Cl)c(OCc3ccc(Cl)cc3)c2)n1`, the EC50 in data set [1] is 7.7 µM; in data set [3], more than 95 µM; in data set [4], more than 95 µM. Also, the selectivity ratio in data set [2] stood at 12. In addition, the cytotoxic concentration (CC50) at 120 h in data set [5] came out at 95 µM.
Consider `COc1ccnc(Nc2ccc(Cl)c(OCc3ccc([N+](=O)[O-])cc3)c2)n1`, for which, in data set [1], the EC50 was more than 323 µM. In addition, the selectivity ratio in data set [2] was more than 1. This compound also displayed a CC50 at 120 h in data set [5] of more than 323 µM.
In the case of `O=C1Nc2ccc(Cl)cc2[C@@](C#CC2CC2)(C(F)(F)F)O1` [EFAVIRENZ], the figures for the EC50 in data set [1] and in data set [4] were 0.009 µM and 0.52 µM, respectively. Also, the selectivity ratio in data set [2] was more than 693.
With `COC(=O)c1ccc(COc2cc(Nc3nccc(OC)n3)ccc2Cl)cc1`, the EC50 in data set [1] is more than 106 µM; in data set [3], more than 1.6 µM. The selectivity ratio in data set [2] was less than 1. Besides, in data set [5], the CC50 at 120 h is not below 106 µM.
Turning to `COc1ccnc(Nc2ccc(Cl)c(OCc3ccccc3F)c2)n1`, the EC50 was 0.05 µM in data set [1], more than 42 µM in data set [3] and more than 42 µM in data set [4]. Also, in data set [2], the selectivity ratio was 777. In data set [5], this compound had a CC50 at 120 h of 42 µM.
In the case of `COc1ccnc(Nc2ccc(Cl)c(OCc3cccc(Br)c3)c2)n1`, the concentration giving a half-maximal response (EC50) in data set [1] is 0.76 µM; in data set [3] it was more than 297 µM; in data set [4] it was more than 297 µM. The selectivity ratio in data set [2] is more than 393. In data set [5], the CC50 at 120 h was more than 297 µM.
